SMILES strings stand for the structures. Like-named read-outs stand apart in the source and are kept apart here.

Here are results for 7 compounds from patent US11274124B2, “Tubulysin analogues as anticancer agents and payloads for antibody-drug conjugates and methods of treatment therewith” (William Marsh Rice University, priority 2017, dated 2022).

Data set [1] concerns MES SA (uterine sarcoma cell line). The experiment in a line: In vitro cytotoxicity assay (CellTiter-Glo, 72 hours), MES SA. In kind it is cell-based. To be noted: Homo sapiens, MES-SA, 72 h.
Data set [2] relates to HEK 293T (human embryonic kidney cancer cell line). The experiment in a line: In vitro cytotoxicity assay (CellTiter-Glo, 72 hours), HEK 293T. In kind it is cell-based. To be noted: Homo sapiens, HEK-293T, 72 h. (In general: Cellular ATP, detected with luciferase, serves as a proxy for viable cell number.)
Data set [3] has as its system MES SA, MES SA DX and HEK 293T cells. The experiment in a line: In vitro cytotoxicity assay, structure-activity discussion over the cell lines tested. To be noted: refers to Tables 2 and 3.
In data set [4] the test system is MES SA DX (MES SA cell line with marked multi-drug resistance). The experiment in a line: In vitro cytotoxicity assay (CellTiter-Glo, 72 hours), MES SA DX. To be noted: for IC50: Homo sapiens, MES-SA, 72 h.
[5] abbreviates: read-out: MES SA, IC50 Value in nM.
Where [6] appears, read: read-out: HEK 293T, IC50 Value in nM.
Setting [7] is: read-out: MES SA DX, IC50 Value in nM.

One may read the IC50 as the point on the concentration scale where inhibition reaches its midpoint. As to `COC(=O)C12CC(NC(=O)c3csc([C@@H](C[C@H](C(C)C)N(C)C(=O)[C@@H](NC(=O)[C@H]4CCCCN4C)C(C)C)OC(C)=O)n3)(C1)C2` [Tb102, Methyl 3-{[(2-{1-acetoxy-4-methyl-3-[methyl(3-methyl-2-{[(1-methylpiperidin-2-yl)carbonyl]amino}-butanoyl)amino]pentyl}-1,3-thiazol-4-yl)carbonyl]amino}bicyclo[1.1.1]pentane-1-carboxylate], the IC50 was found to be 0.926 nM in data set [1] (read-out: MES SA, IC50); 0.926 nM in data set [1] (setting [5]); 0.355 nM in data set [2] (read-out: HEK 293T, IC50); 0.355 nM in data set [2] (setting [6]); 54.1 nM in data set [4] (read-out: MES SA DX, IC50); 54.1 nM in data set [4] (setting [7]). The “cytotoxicity potency (in words, structure-activity discussion)” value (“cytotoxicity potency” for short) in data set [3] is reported as “subnanomolar potencies against two of the cell lines tested”.

In the case of `COC(=O)[C@@H](C)C[C@H](Cc1ccc2ccccc2c1)NC(=O)c1csc([C@@H](C[C@H](C(C)C)N(C)C(=O)[C@@H](NC(=O)[C@H]2CCCCN2C)C(C)C)OC(C)=O)n1` [Tb104, Methyl (2S)-4-{[(2-{1-acetoxy-4-methyl-3-[methyl(3-methyl-2-{[(1-methylpiperidin-2-yl)carbonyl]-amino}butanoyl)amino]pentyl}-1,3-thiazol-4-yl)carbonyl]amino}-2-methyl-5-(2-naphthyl)pentanoate], the IC50 in data set [1] (setting [5]) is 9.5 nM; in data set [2] (setting [6]) it was 12.8 nM; in data set [4] (setting [7]) it was above 1000 nM. The “cytotoxicity potency” value in data set [3] is recorded as “modest potency”.

Turning to `COC(=O)CC[C@H](Cc1ccccc1)NC(=O)c1csc([C@@H](C[C@H](C(C)C)N(C)C(=O)[C@@H](NC(=O)[C@H]2CCCCN2C)C(C)C)OC(C)=O)n1` [Tb105, Methyl 4-{[(2-{1-acetoxy-4-methyl-3-[methyl(3-methyl-2-{[(1-methylpiperidin-2-yl)carbonyl]-amino}butanoyl)amino]pentyl}-1,3-thiazol-4-yl)carbonyl]amino}-5-phenylpentanoate], the IC50 is 2.94 nM in data set [1] (setting [5]), 1.53 nM in data set [2] (setting [6]) and above 1000 nM in data set [4] (setting [7]). In addition, in data set [3], the “cytotoxicity potency” value was “considerable loss of activity”.

As to `CCOC(=O)[C@@H](C)C[C@H](Cc1ccccc1)NC(=O)c1csc([C@@H](C[C@H](C(C)C)N(C)C(=O)[C@@H](NC(=O)[C@H]2CCCCN2C)C(C)(C)C)OC(C)=O)n1` [Tb106, Ethyl (2S,4R)-4-[({2-[(1R,3R)-1-acetoxy-3-{[(2S)-3,3-dimethyl-2-({[(2R)-1-methylpiperidin-2-yl]car-bonyl}amino)butanoyl](methyl)amino}-4-methylpentyl]-1,3-thiazol-4-yl}carbonyl)amino]-2-methyl-5-phenylpentanoate], the IC50 in data set [1] (read-out: MES SA, IC50) was found to be 0.12 nM; in data set [1] (setting [5]) it was 0.12 nM; in data set [2] (read-out: HEK 293T, IC50), 0.13 nM; in data set [2] (setting [6]), 0.13 nM; in data set [4] (read-out: MES SA DX, IC50) it was 2.73 nM; in data set [4] (setting [7]), 2.73 nM. In addition, in data set [3], the “cytotoxicity potency” value is “exceptional potencies”.

On to `CC(=O)O[C@H](C[C@H](C(C)C)N(C)C(=O)[C@@H](NC(=O)[C@H]1CCCCN1C)C(C)(C)C)c1nc(C(=O)N[C@@H](Cc2ccccc2)C[C@H](C)C(=O)O)cs1` [Tb107, (2S,4R)-4-[({2-[(1R,3R)-1-Acetoxy-3-{[(2S)-3,3-dimethyl-2-({[(2R)-1-methylpiperidin-2-yl]carbonyl}amino)butanoyl](methyl)amino}-4-methylpentyl]-1,3-thiazol-4-yl}carbonyl)amino]-2-methyl-5-phenylpentanoic acid], for which the IC50 stood at 0.01 nM in data set [1] (read-out: MES SA, IC50); 0.01 nM in data set [1] (setting [5]); 0.02 nM in data set [2] (read-out: HEK 293T, IC50); 0.02 nM in data set [2] (setting [6]); 4.05 nM in data set [4] (read-out: MES SA DX, IC50); 4.05 nM in data set [4] (setting [7]). Moreover, in data set [3], the “cytotoxicity potency” value is on record as “exceptional potencies”. Also, in data set [4], the “cytotoxicities against the marked drug resistant cancer cell line MES SA DX (in words)” value is recorded as “relatively potent (low nanomolar)”.

In the case of `CCOC(=O)[C@@H](C)C[C@H](Cc1ccccc1)NC(=O)c1csc([C@@H](C[C@H](C(C)C)N(C)C(=O)[C@@H](NC(=O)[C@H]2CCCCN2C)C(C)(C)CC)OC(C)=O)n1` [Tb108, Ethyl (2S,4R)-4-[({2-[(1R,3R)-1-acetoxy-3-{[(2S)-3,3-dimethyl-2-({[(2R)-1-methylpiperidin-2-yl]car-bonyl}amino)pentanoyl](methyl)amino}-4-methylpentyl]-1,3-thiazol-4-yl}carbonyl)amino]-2-methyl-5-phenylpentanoate], the IC50 was 0.95 nM in data set [1] (read-out: MES SA, IC50); 0.95 nM in data set [1] (setting [5]); 0.38 nM in data set [2] (read-out: HEK 293T, IC50); 0.38 nM in data set [2] (setting [6]); 6.08 nM in data set [4] (read-out: MES SA DX, IC50); 6.08 nM in data set [4] (setting [7]). In data set [3], the “cytotoxicity potency” value is on record as “exceptional potencies”.

On to `CCC(C)(C)[C@H](NC(=O)[C@H]1CCCCN1C)C(=O)N(C)[C@H](C[C@@H](OC(C)=O)c1nc(C(=O)N[C@@H](Cc2ccccc2)C[C@H](C)C(=O)O)cs1)C(C)C` [Tb109, (2S,4R)-4-[({2-[(1R,3R)-1-Acetoxy-3-{[(2S)-3,3-dimethyl-2-({[(2R)-1-methylpiperidin-2-yl]car-bonyl}amino)pentanoyl](methyl)amino}-4-methylpentyl]-1,3-thiazol-4-yl}carbonyl)amino]-2-methyl-5-phenylpentanoic acid], for which the IC50 in data set [1] (read-out: MES SA, IC50) was 0.36 nM; in data set [1] (setting [5]) it was 0.36 nM; in data set [2] (read-out: HEK 293T, IC50) it was 0.01 nM; in data set [2] (setting [6]), 0.01 nM; in data set [4] (read-out: MES SA DX, IC50) it was 1.39 nM; in data set [4] (setting [7]), 1.39 nM. Further, in data set [3], the “cytotoxicity potency” value is listed as “exceptional potencies”. For the same compound, the “cytotoxicities against the marked drug resistant cancer cell line MES SA DX (in words)” value in data set [4] is reported as “relatively potent (low nanomolar)”.
